The values below come from patent US5624937A, “Chemical compounds as inhibitors of amyloid beta protein production” (Eli Lilly and Company, priority 1995, dated 1997).

SMILES strings stand for the structures.

The assay has as its system Aβ production (APP-751 Swedish mutation transfected cells 293 751 SWE and CHO 751 SWE). Briefly: Aβ production inhibition activity in cells (Aβ ELISA of conditioned media, normalized for MTT cytotoxicity). Type of assay: cell-based. The conditions noted are these: 2 h pretreatment + 2 h, normalized to MTT, mean of at least six replicate assays, cell line not stated, read-out: IC50 (concentration of test compound required to inhibit Aβ production by 50%). Here is the method:
Two cell lines (human kidney cell line 293 and Chinese hamster ovary cell line CHO) were stably transfected with the gene for APP-751 containing the double mutation Lys651 -Met652 to Asn651 -Leu652 (APP-751 numbering) commonly called the Swedish mutation using the method described in Citron et al., (1992) Nature 360: 672-674. The transfected cell lines were designated as 293 751 SWE and CHO 751 SWE, and were plated in Corning 96 well plates at 2.5×10^4 or 1×10^4 cells per well respectively in Dulbecco's minimal essential media plus 10% fetal bovine serum. Following overnight incubation at 37° C. in an incubator equilibrated with 10% carbon dioxide (CO2), the media were removed and replaced with 200 μL per well of media containing a test compound. After a two hour pretreatment period, the media were again removed and replaced with fresh media containing the test compound and the cells were incubated for an additional two hours.
Test compound stocks were prepared in DMSO such that at the final concentration used in the treatment, the concentration of DMSO did no exceed 0.5%. After treatment, plates were centrifuged in a Beckman GPR at 1200 rpm for five minutes at room temperature to pellet cellular debris from the conditioned media. From each well, 100μL of conditioned media were transferred into an ELISA plate precoated with antibody 266 against βAP-13-28 (Seubert et al , supra.) and stored at 4° C. overnight. An ELISA assay employing labeled antibody 6C6 (against βAP-1-16) was run the next day to measure the amount of Aβ produced.
Cytotoxic effects of the test compounds were measured by a modification of the method of Hansen et al., (1989) J. Immun. Meth. 119: 203-210. To the cells remaining in the tissue culture plate, was added 25 μL of a 3,(4,5-dimethylthiazol-2-yl)2,5-diphenyltetrazolium bromide (MTT) stock solution (5 mg/mL) to a final concentration of 1 mg/mL. Cells were incubated at 37° C. for one hour, and cellular activity was stopped by the addition of an equal volume of MTT lysis buffer (20% w/v sodium dodecylsulfate in 50% DMF, pH 4.7). Complete extraction was achieved by overnight shaking at room temperature. The difference in the OD562 nm and the OD650 nm was measured in a Molecular Devices UVmax microplate reader as an indicator of the cellular viability.
The results of the Aβ ELISA were fit to a standard curve and expressed as ng/mL Aβ peptide. In order to normalize for cytotoxicity, these Aβ results were divided by the MTT results and expressed as a percentage of the results from a drug-free control.
The test compounds were assayed for Aβ production inhibition activity in cells at 10 μg/mL using the test. The results presented in Table 1 are the mean and standard deviation of at least six replicate assays. IC50 means the concentration of test compound in micromoles/liter required to inhibit Aβ production by 50%.
Turning to `O=C(Nc1ccc(Sc2ccc3ccccc3n2)cc1)Nc1ccc(Cl)c(C(F)(F)F)c1` [Example 18, 1-[4-(2-Quinolylthio)phenyl]-3-(4-chloro-3-trifluoromethylphenyl]urea], the IC50 is more than 20 µM. For `FC(F)(F)c1cc(NC(=S)Nc2ccc(Sc3nc4ccccc4[nH]3)cc2)ccc1Cl` [Example 10, 1-[4-(2-Benzimidazolylthio)phenyl]-3-(4-chloro-3-trifluoromethylphenyl)thiourea], the IC50 is 7.1 µM. With `FC(F)(F)c1cc(NC(=S)Nc2ccc(Sc3cc(-c4ccccc4)c4ccccc4n3)cc2)ccc1Cl` [Example 4, 1-[4-(4-Phenyl-2-quinolylthio)phenyl]-3-(4-chloro-3-trifluoromethylphenyl)thiourea] the figure was more than 20 µM; with `COc1ccc2nc(Sc3ccc(NC(=S)Nc4ccc(Cl)c(C(F)(F)F)c4)cc3)ccc2c1` [Example 5, 1-[4-(6-Methoxy-2-quinolylthio)phenyl]-3-(4-chloro-3-trifluoromethylphenyl)thiourea], 4.4 µM; with `FC(F)(F)c1cc(NC(=S)Nc2ccc(Sc3nc4ccccc4o3)cc2)ccc1Cl` [Example 11, 1-[4-(2-Benzoxazolylthio)phenyl]-3-(4-chloro-3-trifluoromethylphenyl)thiourea], 12.5 µM.

Regarding `FC(F)(F)c1cc(NC(=S)Nc2ccc(Sc3ccc(-c4ccccc4)nn3)cc2)ccc1Cl` [Example 20], the IC50 was 4.4 µM. The result for `FC(F)(F)c1cc(NC(=S)Nc2ccc(Oc3ccc4ccccc4n3)cc2)ccc1Cl` [Example 17, 1-[4-(2-Quinolyloxy)phenyl]-3-(4-chloro-3-trifluoromethylphenyl)thiourea] reads 9.7 µM. As to `FC(F)(F)c1cc(NC(=S)Nc2ccc(Sc3nc4ccccc4s3)cc2)ccc1Cl` [Example 12, 1-[4-(2-Benzothiazolylthio)phenyl]-3-(4-chloro-3-trifluoromethylphenyl)thiourea], the IC50 was determined as 3.9 µM. The result for `FC(F)(F)c1cc(NC(=S)Nc2ccc(Sc3nc4cc(Cl)ccc4s3)cc2)ccc1Cl` [Example 13, 1-[4-(5-Chloro-2-benzothiazolylthio)phenyl]-3-(4-chloro-3-trifluoromethylphenyl)thiourea] reads 1.7 µM; that for `[O-][S+](c1ccc(NC(=S)Nc2ccc(Cl)c(C(F)(F)F)c2)cc1)c1ccc2ccccc2n1` (stereo not shown) [Example 14, 1-[4-(2-Quinolylsulfinyl)phenyl]-3-(4-chloro-3-trifluoromethylphenyl)thiourea], 12.1 µM. The result for `FC(F)(F)c1cc(NC(=S)Nc2ccc(Sc3ccccn3)cc2)ccc1Cl` [Example 21] reads 8.3 µM; that for `FC(F)(F)c1cc(NC(=S)Nc2ccc(Nc3ccc4ccccc4n3)cc2)ccc1Cl` [Example 16, 1-[4-(2-quinolylamino)phenyl]-3-(4-chloro-3-trifluoromethylphenyl)thiourea], 11.8 µM; that for `S=C(Nc1ccc(Sc2ccc3ccccc3n2)cc1)Nc1ccc(Cl)c(Cl)c1` [Example 19, 1-[4-(2-Quinolylthio)phenyl]-3-(3,4-dichlorophenyl)thiourea], 13.8 µM. The result for `FC(F)(F)c1cc(NC(=S)Nc2ccc(Sc3cccc4ccccc34)cc2)ccc1Cl` [Example 9] reads 4.9 µM; that for `FC(F)(F)c1cc(NC(=S)Nc2ccc(Sc3ccc4cc(Cl)ccc4n3)cc2)ccc1Cl` [Example 3, 1-[4-(6-Chloro-2-quinolylthio)phenyl]-3-(4-chloro-3-trifluoromethylphenyl)thiourea], 2.7 µM.

Consider `FC(F)(F)c1cc(NC(=S)Nc2ccc(Sc3ccc4ccccc4c3)cc2)ccc1Cl` [Example 8, 1-[4-(2-Naphthylthio)phenyl]-3-(4-chloro-3-trifluoromethylphenyl)thiourea], for which the IC50 is 2.6 µM. With `FC(F)(F)c1cc(NC(=S)Nc2ccc(Sc3ccc4ccccc4n3)cc2)ccc1Cl` [Example 1, 1-[4-(2-quinolyl)thiophenyl]-3-(4-chloro-3-trifluoromethyphenyl)thiourea] the figure was 3.7 µM; with `FC(F)(F)c1ccc2c(Sc3ccc(NC(=S)Nc4ccc(Cl)c(C(F)(F)F)c4)cc3)ccnc2c1` [Example 7, 1-[4-(7-Trifluoromethyl-4-quinolylthio)phenyl]-3-(4-chloro-3-trifluoromethylphenyl)thiourea], 4.5 µM.

For `O=[N+]([O-])c1c(Sc2ccc(NC(=S)Nc3ccc(Cl)c(C(F)(F)F)c3)cc2)ccc2ncccc12` [Example 22], the IC50 stood at 4.3 µM. With `FC(F)(F)c1cc(NC(=S)Nc2ccc(Sc3ccnc4ccccc34)cc2)ccc1Cl` [Example 6, 1-[4-(4-Quinolylthio)phenyl]-3-(4-chloro-3-trifluoromethylphenyl)thiourea] the figure was 4.7 µM; with `O=S(=O)(c1ccc(NC(=S)Nc2ccc(Cl)c(C(F)(F)F)c2)cc1)c1ccc2ccccc2n1` [Example 15, 1-[4-(2-Quinolylsulfonyl)phenyl]-3-(4-chloro-3-trifluoromethylphenyl)thiourea], 3.7 µM. The result for `CCOC(=O)c1cc(Sc2ccc(NC(=S)Nc3ccc(Cl)c(C(F)(F)F)c3)cc2)nc2ccccc12` [Example 2, 1-[4-(4-ethoxycarbonyl-2-quinolylthio)phenyl]-3-(4-chloro-3-trifluoromethylphenyl)thiourea] reads 3.1 µM.
